The source of these data is PubChem BioAssay AID330 (DTP/NCI, 2004).

Where “and” joins values, the source holds several entries; their conditions need not be identical. Equal entries are not always repeated. Toxic doses and inconclusive results are not listed.

This assay deals with P388 leukemia ip, CD2F1 mice, survival T/C. Put plainly: NCI In Vivo Anticancer Drug Screen. Data for tumor model P388 Leukemia (intraperitoneal) in CD2F1 (CDF1) mice. The following applies: endpoint: median survival time, higher = longer survival. Put shortly: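 Mice carrying the transplanted tumor received test compound or vehicle. Survival was recorded in each group, and the value is the treated-group measurement divided by that of the vehicle-treated control group.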

Setting [1] is: dose: 100.0 mg/kg/injection, schedule: Q01DX005 (ip), vehicle: saline.
Setting [2] is: dose: 50.0 mg/kg/injection, schedule: Q01DX009 (ip), vehicle: saline with Tween-80.
Where [3] appears, read: dose: 100.0 mg/kg/injection, schedule: Q01DX009 (ip), vehicle: saline with Tween-80.
[4] abbreviates: dose: 200.0 mg/kg/injection, schedule: Q01DX009 (ip), vehicle: saline with Tween-80.

For `NC(=O)c1csc(C2OC(CO)C(O)C2O)n1` (stereo unspecified), the T/C is, setting by setting: (dose: 75.0 mg/kg/injection, schedule: Q01DX005 (ip), vehicle: saline) 158 % of control; under setting [1], 155 % of control and 159 % of control and 161 % of control; (dose: 100.0 mg/kg/injection, schedule: Q01DX005 (ip), vehicle: water) 157 % of control; (dose: 150.0 mg/kg/injection, schedule: Q01DX005 (ip), vehicle: saline) 152 % of control and 158 % of control; (dose: 200.0 mg/kg/injection, schedule: Q01DX005 (ip), vehicle: saline) 173 % of control and 174 % of control and 178 % of control; (dose: 200.0 mg/kg/injection, schedule: Q01DX005 (ip), vehicle: water) 171 % of control. Also, the T/C (dose: 300.0 mg/kg/injection, schedule: Q01DX005 (ip), vehicle: saline) was 163 % of control and 177 % of control; the T/C (dose: 300.0 mg/kg/injection, schedule: Q01DX005 (ip), vehicle: water) was 158 % of control; the T/C (dose: 300.0 mg/kg/injection, schedule: Q01DX009 (ip), vehicle: water) was 193 % of control and 198 % of control; the T/C (dose: 400.0 mg/kg/injection, schedule: Q01DX005 (ip), vehicle: saline) was 181 % of control and 187 % of control and 198 % of control; the T/C (dose: 400.0 mg/kg/injection, schedule: Q01DX005 (ip), vehicle: water) was 164 % of control and 189 % of control; the T/C (dose: 400.0 mg/kg/injection, schedule: Q01DX009 (ip), vehicle: water) is 201 % of control and 224 % of control. Further, the T/C is, setting by setting: (dose: 600.0 mg/kg/injection, schedule: Q01DX005 (ip), vehicle: saline) 177 % of control; (dose: 600.0 mg/kg/injection, schedule: Q01DX005 (ip), vehicle: water) 169 % of control; (dose: 600.0 mg/kg/injection, schedule: Q01DX009 (ip), vehicle: water) 234 % of control and 237 % of control; (dose: 700.0 mg/kg/injection, schedule: Q01DX009 (ip), vehicle: water) 245 % of control and 86 % of control; (dose: 750.0 mg/kg/injection, schedule: Q01DX009 (ip), vehicle: water) 117 % of control; (dose: 800.0 mg/kg/injection, schedule: Q01DX005 (ip), vehicle: saline) 217 % of control. The T/C (dose: 800.0 mg/kg/injection, schedule: Q01DX009 (ip), vehicle: water) was 99 % of control and 245 % of control.
`N#CC(C#N)=CNCC1CC1`: the T/C is 102 % of control (dose: 15.0 mg/kg/injection, schedule: Q01DX005 (ip), vehicle: Klucel (hydroxypropylcellulose) (HPC)); 100 % of control (dose: 30.0 mg/kg/injection, schedule: Q01DX005 (ip), vehicle: Klucel (hydroxypropylcellulose) (HPC)); 98 % of control and 99 % of control (dose: 60.0 mg/kg/injection, schedule: Q01DX005 (ip), vehicle: Klucel (hydroxypropylcellulose) (HPC)).
Turning to `COC(=O)C(=O)c1ccccc1`, the T/C is 107 % of control under setting [2]; 101 % of control under setting [3]; 99 % of control under setting [4]; 99 % of control (dose: 400.0 mg/kg/injection, schedule: Q01DX009 (ip), vehicle: saline with Tween-80).
In the case of `O=[N+]([O-])O.[Cl-].[Cl-].[NH-]CC[NH-].[NH-]CC[NH-].[Rh+3]`, the T/C was 106 % of control (dose: 12.5 mg/kg/injection, schedule: Q04DX003 (ip), vehicle: distilled water + Tween-80); 99 % of control (dose: 25.0 mg/kg/injection, schedule: Q04DX003 (ip), vehicle: distilled water + Tween-80); 108 % of control (dose: 50.0 mg/kg/injection, schedule: Q04DX003 (ip), vehicle: distilled water + Tween-80); 111 % of control (dose: 100.0 mg/kg/injection, schedule: Q04DX003 (ip), vehicle: distilled water + Tween-80); 102 % of control (dose: 200.0 mg/kg/injection, schedule: Q04DX003 (ip), vehicle: distilled water + Tween-80).
Regarding `CC12CC3CC(O)(C1)CC(O)(C3)C2`, the T/C by setting is: (dose: 50.0 mg/kg/injection, schedule: Q01DX009 (ip), vehicle: saline) 100 % of control; (dose: 100.0 mg/kg/injection, schedule: Q01DX009 (ip), vehicle: saline) 100 % of control; (dose: 200.0 mg/kg/injection, schedule: Q01DX009 (ip), vehicle: saline) 102 % of control.
Consider `O=C1NC(=O)C2C3CCC(O3)C12` (stereo unspecified), for which the T/C (dose: 50.0 mg/kg/injection, schedule: Q01DX005 (ip), vehicle: saline) is 106 % of control and 99 % of control; the T/C (dose: 60.0 mg/kg/injection, schedule: Q01DX005 (ip), vehicle: saline with Tween-80) was 94 % of control; the T/C (dose: 60.0 mg/kg/injection, schedule: Q01DX005 (ip), vehicle: saline) was 101 % of control; the T/C under setting [1] is 106 % of control and 98 % of control; the T/C (dose: 120.0 mg/kg/injection, schedule: Q01DX005 (ip), vehicle: saline with Tween-80) is 100 % of control; the T/C (dose: 120.0 mg/kg/injection, schedule: Q01DX005 (ip), vehicle: saline) was 102 % of control. Also, the T/C is, setting by setting: (dose: 240.0 mg/kg/injection, schedule: Q01DX005 (ip), vehicle: saline with Tween-80) 106 % of control; (dose: 240.0 mg/kg/injection, schedule: Q01DX005 (ip), vehicle: saline) 92 % of control.
Turning to `Brc1ccc(N=Cc2cccs2)cc1`, the T/C is 100 % of control (dose: 100.0 mg/kg/injection, schedule: Q04DX003 (ip), vehicle: saline); 99 % of control (dose: 200.0 mg/kg/injection, schedule: Q04DX003 (ip), vehicle: saline); 98 % of control (dose: 400.0 mg/kg/injection, schedule: Q04DX003 (ip), vehicle: saline).
Regarding `O=C(O)c1c(Cl)nc2n1CCS2`, the T/C by setting is: (dose: 50.0 mg/kg/injection, schedule: Q01DX001 (ip), vehicle: Klucel (hydroxypropylcellulose) (HPC)) 97 % of control; (dose: 100.0 mg/kg/injection, schedule: Q01DX001 (ip), vehicle: Klucel (hydroxypropylcellulose) (HPC)) 101 % of control; (dose: 200.0 mg/kg/injection, schedule: Q01DX001 (ip), vehicle: Klucel (hydroxypropylcellulose) (HPC)) 104 % of control.
Consider `C/C=C(\C(=O)OC)C1CC2OC(=O)C1(C=O)C13CCNC21N(C)c1ccccc13` (stereo unspecified), for which the T/C is, setting by setting: (dose: 4.5 mg/kg/injection, schedule: Q01DX005 (ip), vehicle: saline + Tween-80 + alcohol) 104 % of control; (dose: 9.5 mg/kg/injection, schedule: Q01DX005 (ip), vehicle: saline + Tween-80 + alcohol) 98 % of control; (dose: 18.0 mg/kg/injection, schedule: Q01DX005 (ip), vehicle: saline + Tween-80 + alcohol) 104 % of control; (dose: 38.0 mg/kg/injection, schedule: Q01DX005 (ip), vehicle: saline + Tween-80 + alcohol) 98 % of control.
With `COc1c(O)cc2oc(-c3ccccc3)c(O)c(=O)c2c1OC`, the T/C (dose: 25.0 mg/kg/injection, schedule: Q01DX005 (ip), vehicle: Klucel + Tween-80) is 89 % of control; the T/C (dose: 50.0 mg/kg/injection, schedule: Q01DX005 (ip), vehicle: Klucel + Tween-80) is 95 % of control; the T/C (dose: 100.0 mg/kg/injection, schedule: Q01DX005 (ip), vehicle: Klucel + Tween-80) was 98 % of control; the T/C (dose: 200.0 mg/kg/injection, schedule: Q01DX005 (ip), vehicle: Klucel + Tween-80) was 95 % of control.
Regarding `CC(C[N+](C)(C)C)OC(N)=O` (stereo unspecified), the T/C is, setting by setting: (dose: 50.0 mg/kg/injection, schedule: Q01DX001 (ip), vehicle: saline) 101 % of control; (dose: 100.0 mg/kg/injection, schedule: Q01DX001 (ip), vehicle: saline) 100 % of control; (dose: 200.0 mg/kg/injection, schedule: Q01DX001 (ip), vehicle: saline) 108 % of control.
As for `COc1ccc2sc3c(C)ccc(NCCN(C)C)c3c(=O)c2c1`, under setting [2], the T/C is 115 % of control.
Take `N#CC1OC(COC(=O)c2ccccc2)C(OC(=O)c2ccccc2)C1OC(=O)c1ccccc1` (stereo unspecified): the T/C by setting is: (dose: 12.5 mg/kg/injection, schedule: Q01DX009 (ip), vehicle: distilled water + Tween-80) 90 % of control; (dose: 25.0 mg/kg/injection, schedule: Q01DX009 (ip), vehicle: distilled water + Tween-80) 89 % of control; (dose: 50.0 mg/kg/injection, schedule: Q01DX009 (ip), vehicle: distilled water + Tween-80) 88 % of control; under setting [2], 99 % of control; (dose: 100.0 mg/kg/injection, schedule: Q01DX009 (ip), vehicle: distilled water + Tween-80) 98 % of control; under setting [3], 94 % of control. Besides, the T/C is 101 % of control (dose: 200.0 mg/kg/injection, schedule: Q01DX009 (ip), vehicle: distilled water + Tween-80) and 94 % of control under setting [4].
For `O=[N+]([O-])c1cc2c(ccc3cc(Br)ccc32)o1`, the T/C was 87 % of control (dose: 50.0 mg/kg/injection, schedule: Q01DX005 (ip), vehicle: Klucel (hydroxypropylcellulose) (HPC)); 92 % of control (dose: 100.0 mg/kg/injection, schedule: Q01DX005 (ip), vehicle: Klucel (hydroxypropylcellulose) (HPC)); 92 % of control (dose: 200.0 mg/kg/injection, schedule: Q01DX005 (ip), vehicle: Klucel (hydroxypropylcellulose) (HPC)).
